According to ChEMBL document CHEMBL3885861, “Open TG-GATES”:

Species: Rattus norvegicus
Test: Open TG-GATES - Regimen: Daily Repeat
Format: toxicity, organism-based, Sprague-Dawley
Design: regimen Daily Repeat, gender Male, age 6 weeks
Conditions: in vivo, po, 1000 mg/kg, […], route gavage, dose level High; for KIDNEY_L / KIDNEY_R / KIDNEY_TOTAL: tissue Kidney; for LIVER: tissue Liver; for A/G / ALP / ALT / AST / BUN / CRE / Ca / Cl / DBIL / GLC / IP / K / LDH / Na / PL / RALB / TBIL / TC / TG / TP / gamma-GTP: tissue Plasma

CCCCNC(=O)NS(=O)(=O)c1ccc(C)cc1 [TOLBUTAMIDE] gave a Lym (tissue Blood, time 28 day) of 84.5%, an MCH (tissue Blood, time 28 day) of 18.6 pg and an MCHC (tissue Blood, time 28 day) of 33.5%. For the same compound, the MCV (tissue Blood, time 28 day) was 55.6 fL, the Mono (tissue Blood, time 28 day) was 2% and the Neu (tissue Blood, time 28 day) was 11.2%. For the same compound, the PT (tissue Blood, time 28 day) was 13.5 s, the Plat (tissue Blood, time 28 day) was 102.5 x10_4/uL and the RBC (tissue Blood, time 28 day) was 808.8 x10_4/ul. It also gave a Ret (tissue Blood, time 28 day) of 2.1%, a WBC (tissue Blood, time 28 day) of 118.3 x10_2/uL and a KIDNEY_L (time 7 day) of 1.1 g. It also gave a KIDNEY_R (time 7 day) of 1.1 g, a KIDNEY_TOTAL (time 7 day) of 2.2 g and a KIDNEY_L (time 14 day) of 1.2 g. The KIDNEY_R (time 14 day) was 1.2 g, the KIDNEY_TOTAL (time 14 day) was 2.4 g and the KIDNEY_L (time 28 day) was 1.4 g. The KIDNEY_R (time 28 day) was 1.3 g, the KIDNEY_TOTAL (time 28 day) was 2.7 g and the LIVER (time 7 day) was 12.3 g. It also gave an LIVER (time 14 day) of 15 g, an LIVER (time 28 day) of 18.7 g and an A/G (time 7 day) of 0.9. It also gave an ALP (time 7 day) of 1609.6 IU/L, an ALT (time 7 day) of 48.6 IU/L and an AST (time 7 day) of 71.4 IU/L. The BUN (time 7 day) was 14.8 mg/dL, the CRE (time 7 day) was 0.2 mg/dL and the Ca (time 7 day) was 10.7 mg/dL. For the same compound, the Cl (time 7 day) was 104 meq/L, the DBIL (time 7 day) was 0.008 mg/dL and the GLC (time 7 day) was 189.6 mg/dL. The IP (time 7 day) was 7.7 mg/dL, the K (time 7 day) was 4 meq/L and the LDH (time 7 day) was 55.8 IU/L. It also gave a Na (time 7 day) of 141.8 meq/L, a PL (time 7 day) of 151.8 mg/dL and an RALB (time 7 day) of 2.5 g/dL. For the same compound, the TBIL (time 7 day) was 0.052 mg/dL, the TC (time 7 day) was 74.2 mg/dL and the TG (time 7 day) was 94.2 mg/dL. The TP (time 7 day) was 5.4 g/dL, the gamma-GTP (time 7 day) was 0.8 IU/L and the A/G (time 14 day) was 0.9. The ALP (time 14 day) was 1494.8 IU/L, the ALT (time 14 day) was 42.4 IU/L and the AST (time 14 day) was 63.4 IU/L. It also gave a BUN (time 14 day) of 15 mg/dL, a CRE (time 14 day) of 0.2 mg/dL and a Ca (time 14 day) of 10.9 mg/dL. The Cl (time 14 day) was 104.6 meq/L, the DBIL (time 14 day) was 0.01 mg/dL and the GLC (time 14 day) was 192.6 mg/dL. The IP (time 14 day) was 6.8 mg/dL, the K (time 14 day) was 3.8 meq/L and the LDH (time 14 day) was 49.4 IU/L. For the same compound, the Na (time 14 day) was 142.4 meq/L, the PL (time 14 day) was 157.2 mg/dL and the RALB (time 14 day) was 2.7 g/dL. For the same compound, the TBIL (time 14 day) was 0.056 mg/dL, the TC (time 14 day) was 72 mg/dL and the TG (time 14 day) was 136.8 mg/dL. The TP (time 14 day) was 5.9 g/dL, the gamma-GTP (time 14 day) was 1 IU/L and the A/G (time 28 day) was 0.8. It also gave an ALP (time 28 day) of 1194 IU/L, an ALT (time 28 day) of 36.5 IU/L and an AST (time 28 day) of 59 IU/L. The BUN (time 28 day) was 17.2 mg/dL, the CRE (time 28 day) was 0.3 mg/dL and the Ca (time 28 day) was 10.8 mg/dL. The Cl (time 28 day) was 105.2 meq/L, the DBIL (time 28 day) was 0.01 mg/dL and the GLC (time 28 day) was 203.2 mg/dL. It also gave an IP (time 28 day) of 6.5 mg/dL, a K (time 28 day) of 3.7 meq/L and an LDH (time 28 day) of 53.5 IU/L. For the same compound, the Na (time 28 day) was 143.2 meq/L, the PL (time 28 day) was 132 mg/dL and the RALB (time 28 day) was 2.7 g/dL. It also gave a TBIL (time 28 day) of 0.05 mg/dL, a TC (time 28 day) of 58.2 mg/dL and a TG (time 28 day) of 111.5 mg/dL. The TP (time 28 day) was 6 g/dL and the gamma-GTP (time 28 day) was 1 IU/L.
